Assay results: patent publication US10597388B2, “Pyridazinone herbicides” (FMC CORPORATION, priority 2014, dated 2020)

Columns and labels:
Test in all cases: Test C greenhouse herbicide test, pre- and postemergence
Format in all cases: in vivo
[1] = test system: galium (catchweed bedstraw, Galium aparine)
Summary of the method: (§1)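 Pre- and postemergence greenhouse screen; values are visual control ratings, 0 meaning no effect and 100 complete kill, assigned relative to untreated plants after 13 to 15 d.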

[2] = test system: barnyardgrass (Echinochloa crus-galli)
Summary of the method: as §1

[3] = test system: lambsquarters (Chenopodium album)
Summary of the method: as §1

[4] = test system: oilseed rape (Brassica napus)
Summary of the method: as §1

[5] = test system: velvetleaf (Abutilon theophrasti)
Summary of the method: as §1

[6] = test system: crabgrass, large (large crabgrass, Digitaria sanguinalis)
Summary of the method: as §1

[7] = test system: ragweed (common ragweed, Ambrosia elatior)
Summary of the method: as §1

[8] = test system: corn (Zea mays)
Summary of the method: as §1

[9] = test system: waterhemp (common waterhemp, Amaranthus rudis)
Summary of the method: as §1

[10] = test system: blackgrass (Alopecurus myosuroides)
Summary of the method: as §1

[11] = test system: foxtail, giant (giant foxtail, Setaria faberii)
Summary of the method: as §1

[12] = test system: ryegrass, Italian (Italian ryegrass, Lolium multiflorum)
Summary of the method: as §1

[13] = test system: soybean (Glycine max)
Summary of the method: as §1

[14] = test system: morningglory (Ipomoea coccinea)
Summary of the method: as §1

[15] = test system: nutsedge, yellow (yellow nutsedge, Cyperus esculentus)
Summary of the method: as §1

[16] = Postemergence, 125 g ai/ha, scale 0 to 100, 0 is no effect, 100 is complete control
[17] = Postemergence, 250 g ai/ha, scale 0 to 100, 0 no effect, 100 complete control, 13 to 15 d
[18] = Preemergence, 125 g ai/ha, scale 0 to 100, 0 is no effect, 100 is complete control
[19] = Preemergence, 250 g ai/ha, scale 0 to 100, 0 no effect, 100 complete control
[20] = postemergence, 62 g ai/ha, scale 0 to 100, 0 no effect, 100 complete control
[21] = Postemergence, 31 g ai/ha, 0 to 100 scale (0 no effect, 100 complete control)
[22] = Preemergence, 31 g ai/ha, scale 0 to 100, 0 is no effect, 100 is complete control
[23] = Preemergence, 62 g ai/ha, scale 0 to 100, 0 is no effect, 100 is complete control

`CC(=O)Oc1c(C)nn(C)c(=O)c1-c1c(C)cc(C)c2ccccc12` [Compound 99] was tested. Which “Plant response rating, Galium” value [1, 16] did it give?
Its value is 98.

And the “Plant response rating, Galium” value [1, 17]?
The value was 98.

What about the “Plant response rating, Galium” value [1, 18] of the same compound?
The value was 98.

And the “Galium plant response rating” value [1, 19]?
Its value is 98.

And the “Galium plant response rating” value [1, 20]?
Its value is 95.

And the “Barnyardgrass plant response rating” value [2, 21]?
Its value is 25.

And the “Plant response rating, Barnyardgrass” value [2, 16]?
The value was 35.

What about the “Plant response rating, Barnyardgrass” value [2, 17] of the same compound?
Its value is 35.

What about the “Plant response rating, Barnyardgrass” value [2, 22] of the same compound?
The value was 5.

And the “Plant response rating, Barnyardgrass” value [2, 23]?
Its value is 15.

What about the “Plant response rating, Barnyardgrass” value [2, 18] of the same compound?
The value was 55.

What about the “Barnyardgrass plant response rating” value [2, 19] of the same compound?
The value was 85.

And the “Barnyardgrass plant response rating” value [2, 20]?
Its value is 25.

What about the “Plant response rating, Lambsquarters” value [3, 16] of the same compound?
Its value is 85.

What about the “Plant response rating, Lambsquarters” value [3, 17] of the same compound?
The value was 98.

And the “Plant response rating, Lambsquarters” value [3, 22]?
The value was 25.

What about the “Plant response rating, Lambsquarters” value [3, 23] of the same compound?
Its value is 80.

And the “Plant response rating, Lambsquarters” value [3, 18]?
The value was 100.

What about the “Lambsquarters plant response rating” value [3, 19] of the same compound?
Its value is 95.

What about the “Lambsquarters plant response rating” value [3, 20] of the same compound?
Its value is 75.

What about the “Plant response rating, Oilseed Rape” value [4, 16] of the same compound?
Its value is 60.

And the “Plant response rating, Oilseed Rape” value [4, 17]?
The value was 55.

And the “Plant response rating, Oilseed Rape” value [4, 22]?
Its value is 0.

And the “Plant response rating, Oilseed Rape” value [4, 23]?
The value was 40.

What about the “Plant response rating, Oilseed Rape” value [4, 18] of the same compound?
Its value is 90.

What about the “Oilseed Rape plant response rating” value [4, 19] of the same compound?
Its value is 98.

And the “Oilseed Rape plant response rating” value [4, 20]?
Its value is 5.

And the “Plant response rating, Velvetleaf” value [5, 16]?
Its value is 98.

What about the “Plant response rating, Velvetleaf” value [5, 17] of the same compound?
The value was 100.

And the “Plant response rating, Velvetleaf” value [5, 22]?
Its value is 60.

And the “Plant response rating, Velvetleaf” value [5, 23]?
Its value is 75.

And the “Plant response rating, Velvetleaf” value [5, 18]?
Its value is 90.

What about the “Velvetleaf plant response rating” value [5, 19] of the same compound?
Its value is 95.

And the “Velvetleaf plant response rating” value [5, 20]?
Its value is 85.

What about the “Plant response rating, Crabgrass, Large” value [6, 16] of the same compound?
Its value is 30.

What about the “Plant response rating, Crabgrass, Large” value [6, 17] of the same compound?
Its value is 50.

What about the “Plant response rating, Crabgrass, Large” value [6, 22] of the same compound?
The value was 30.

And the “Plant response rating, Crabgrass, Large” value [6, 23]?
Its value is 35.

What about the “Plant response rating, Crabgrass, Large” value [6, 18] of the same compound?
The value was 60.

What about the “Crabgrass, Large plant response rating” value [6, 19] of the same compound?
The value was 80.

What about the “Crabgrass, Large plant response rating” value [6, 20] of the same compound?
The value was 20.

What about the “Plant response rating, Ragweed” value [7, 16] of the same compound?
Its value is 95.

And the “Plant response rating, Ragweed” value [7, 17]?
The value was 100.

And the “Plant response rating, Ragweed” value [7, 22]?
The value was 70.

What about the “Plant response rating, Ragweed” value [7, 23] of the same compound?
Its value is 90.

And the “Plant response rating, Ragweed” value [7, 18]?
Its value is 95.

And the “Ragweed plant response rating” value [7, 19]?
The value was 95.

What about the “Ragweed plant response rating” value [7, 20] of the same compound?
The value was 90.

And the “Corn plant response rating” value [8, 21]?
Its value is 0.

And the “Plant response rating, Corn” value [8, 16]?
The value was 10.

And the “Plant response rating, Corn” value [8, 17]?
The value was 10.

What about the “Plant response rating, Corn” value [8, 22] of the same compound?
The value was 5.

What about the “Plant response rating, Corn” value [8, 23] of the same compound?
Its value is 20.

What about the “Plant response rating, Corn” value [8, 18] of the same compound?
The value was 10.

What about the “Corn plant response rating” value [8, 19] of the same compound?
The value was 30.

What about the “Corn plant response rating” value [8, 20] of the same compound?
Its value is 5.

What about the “Plant response rating, Waterhemp” value [9, 16] of the same compound?
Its value is 95.

What about the “Plant response rating, Waterhemp” value [9, 17] of the same compound?
Its value is 98.

What about the “Plant response rating, Waterhemp” value [9, 22] of the same compound?
The value was 85.

And the “Plant response rating, Waterhemp” value [9, 23]?
Its value is 100.

And the “Plant response rating, Waterhemp” value [9, 18]?
The value was 98.

And the “Waterhemp plant response rating” value [9, 19]?
Its value is 100.

What about the “Waterhemp plant response rating” value [9, 20] of the same compound?
Its value is 75.

And the “Blackgrass plant response rating” value [10, 21]?
The value was 20.

What about the “Plant response rating, Blackgrass” value [10, 16] of the same compound?
Its value is 50.

And the “Plant response rating, Blackgrass” value [10, 17]?
The value was 65.

And the “Plant response rating, Blackgrass” value [10, 22]?
The value was 50.

What about the “Plant response rating, Blackgrass” value [10, 23] of the same compound?
The value was 70.

And the “Plant response rating, Blackgrass” value [10, 18]?
Its value is 90.

And the “Blackgrass plant response rating” value [10, 19]?
Its value is 90.

What about the “Blackgrass plant response rating” value [10, 20] of the same compound?
Its value is 30.

What about the “Plant response rating, Foxtail, Giant” value [11, 16] of the same compound?
Its value is 30.

And the “Plant response rating, Foxtail, Giant” value [11, 17]?
The value was 50.

What about the “Plant response rating, Foxtail, Giant” value [11, 22] of the same compound?
Its value is 40.

And the “Plant response rating, Foxtail, Giant” value [11, 23]?
The value was 35.

What about the “Plant response rating, Foxtail, Giant” value [11, 18] of the same compound?
The value was 65.

And the “Foxtail, Giant plant response rating” value [11, 19]?
Its value is 90.

And the “Foxtail, Giant plant response rating” value [11, 20]?
The value was 15.

What about the “Plant response rating, Ryegrass, Italian” value [12, 16] of the same compound?
Its value is 95.

What about the “Plant response rating, Ryegrass, Italian” value [12, 17] of the same compound?
The value was 95.

What about the “Plant response rating, Ryegrass, Italian” value [12, 22] of the same compound?
The value was 90.

And the “Plant response rating, Ryegrass, Italian” value [12, 23]?
The value was 90.

And the “Plant response rating, Ryegrass, Italian” value [12, 18]?
Its value is 100.

And the “Ryegrass, Italian plant response rating” value [12, 19]?
Its value is 100.

And the “Ryegrass, Italian plant response rating” value [12, 20]?
The value was 90.

What about the “Plant response rating, Soybean” value [13, 16] of the same compound?
Its value is 5.

What about the “Plant response rating, Soybean” value [13, 17] of the same compound?
Its value is 5.

And the “Plant response rating, Soybean” value [13, 22]?
The value was 0.

And the “Plant response rating, Soybean” value [13, 23]?
Its value is 0.

And the “Plant response rating, Soybean” value [13, 18]?
The value was 5.

And the “Soybean plant response rating” value [13, 19]?
The value was 20.

What about the “Soybean plant response rating” value [13, 20] of the same compound?
The value was 5.

And the “Plant response rating, Morningglory” value [14, 16]?
The value was 100.

What about the “Plant response rating, Morningglory” value [14, 17] of the same compound?
The value was 100.

What about the “Plant response rating, Morningglory” value [14, 22] of the same compound?
Its value is 80.

And the “Plant response rating, Morningglory” value [14, 23]?
Its value is 85.

What about the “Plant response rating, Morningglory” value [14, 18] of the same compound?
The value was 90.

What about the “Morningglory plant response rating” value [14, 19] of the same compound?
Its value is 95.

And the “Morningglory plant response rating” value [14, 20]?
The value was 95.

What about the “Plant response rating, Nutsedge, Yellow” value [15, 16] of the same compound?
The value was 75.

What about the “Plant response rating, Nutsedge, Yellow” value [15, 17] of the same compound?
The value was 85.

And the “Plant response rating, Nutsedge, Yellow” value [15, 22]?
The value was 20.

And the “Plant response rating, Nutsedge, Yellow” value [15, 23]?
The value was 70.

What about the “Plant response rating, Nutsedge, Yellow” value [15, 18] of the same compound?
Its value is 60.

What about the “Nutsedge, Yellow plant response rating” value [15, 19] of the same compound?
Its value is 90.

And the “Nutsedge, Yellow plant response rating” value [15, 20]?
Its value is 55.
